Assay results: article PMC8066341, “Chemical Profiles, Anticancer, and Anti-Aging Activities of Essential Oils of Pluchea dioscoridis (L.) DC. and Erigeron bonariensis L” (Plants, 2021)
In brackets after ≈: the same amount, converted by molar mass.

Tests used:
mushroom tyrosinase = molecular target: T1, mushroom tyrosinase; assay: dopachrome formation, absorbance […] nm; format: biochemical; conditions: L-tyrosine substrate (0.85 mM solution); phosphate pH 6.8; 15 min preincubation at 25 °C
T1 construct: gene PPO1

[1] = molecular target: T2, Collagenase from Clostridium histolyticum (ChC); assay: FALGPA hydrolysis, microplate absorbance; format: biochemical, Hathewaya histolytica; conditions: 50 mM tricine pH 7.5, 400 mM NaCl, 10 mM CaCl2; 15 min preincubation; FALGPA substrate
T2 construct: gene colG

[2] = molecular target: T3, Porcine pancreatic elastase (Sus scrofa, UniProt P00772); assay: N-succinyl-Ala-Ala-Ala-p-nitroanilide hydrolysis, absorbance […] nm; format: biochemical
T3 construct: gene CELA1; native enzyme from pancreas (commercial)
T3 sequence (P00772 27-266): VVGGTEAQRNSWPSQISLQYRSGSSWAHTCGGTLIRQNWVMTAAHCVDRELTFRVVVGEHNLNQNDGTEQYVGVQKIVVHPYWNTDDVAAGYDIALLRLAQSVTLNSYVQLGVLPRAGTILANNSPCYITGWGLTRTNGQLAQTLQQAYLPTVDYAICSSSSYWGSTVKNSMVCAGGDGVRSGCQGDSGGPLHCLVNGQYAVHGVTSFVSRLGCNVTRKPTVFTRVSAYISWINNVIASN

O=C(O[C@@H]1Cc2c(O)cc(O)cc2O[C@@H]1c1cc(O)c(O)c(O)c1)c1cc(O)c(O)c(O)c1 [epigallocatechin gallate]
IC50 (mushroom tyrosinase): 14.37 µg/mL (≈ 31.3 µM)
IC50 [1]: 1.56 µg/mL (≈ 3.4 µM)
IC50 [2]: 22.4 µM
